Data published in the supplement of paper PMC9663587.

Assays:
Test in all cases: GRmax, 72 h; higher = less effect;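 also: breast cell lines in 384-well plates, nine doses across a 10^4 range, Dye Drop imaging of viable cells vs DMSO and time-zero plates, GR 0 means no net growth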
MDAMB468 = tested on: MDAMB468
SUM229PE = tested on: SUM229PE
BT474 = tested on: BT474
SUM44PE = tested on: SUM44PE
MCF12A = tested on: MCF12A
HTERT_HME1 = tested on: HTERT_HME1
184A1 = tested on: 184A1
MCF7 = tested on: MCF7
MDAMB361 = tested on: MDAMB361
UACC812 = tested on: UACC812
HCC1954 = tested on: HCC1954
PDX1328 = tested on: PDX1328
T47D = tested on: T47D

Row | Structure (SMILES) | GRmax, 72 h (MDAMB468) [GR] | GRmax, 72 h (SUM229PE) [GR] | GRmax, 72 h (BT474) [GR] | GRmax, 72 h (SUM44PE) [GR] | GRmax, 72 h (MCF12A) [GR] | GRmax, 72 h (HTERT_HME1) [GR] | GRmax, 72 h (184A1) [GR] | GRmax, 72 h (MCF7) [GR] | GRmax, 72 h (MDAMB361) [GR] | GRmax, 72 h (UACC812) [GR] | GRmax, 72 h (HCC1954) [GR] | GRmax, 72 h (PDX1328) [GR] | GRmax, 72 h (T47D) [GR]
1 | CS(=O)(=O)N1CCN(Cc2cc3nc(-c4cccc5[nH]ncc45)nc(N4CCOCC4)c3s2)CC1 [Pictilisib/GDC0941] (max 10 µM) | -0.0613 | 0.0426 | -0.828 | -0.205 | 0.331 | 0.126 | 0.0537 | -0.159 | -0.938 | -0.601 | -0.227 | -0.167 | -0.147
2 | O=C1NC(=NCc2cccs2)SC1=Cc1ccc2ncccc2c1 [R0-3306] (max 10 µM) | -0.271 | -0.07 | 0.144 | -0.266 | 0.458 | -0.107 | -0.142 | 0.067 | 0.111 | -0.171 | -0.0775 | 0.399 | -0.0261
3 | CNCc1ccc(-c2[nH]c3cc(F)cc4c3c2CCNC4=O)cc1 [Rucaparib] (max 10 µM) | 0.345 | 0.888 | 0.852 | 0.867 | 0.825 | 0.785 | 0.748 | 0.635 | 0.11 | 0.661 | 0.906 | 0.634 | 0.854
4 | CC1(N)CCN(c2cnc(-c3cccc(Cl)c3Cl)c(N)n2)CC1 [SHP099] (max 10 µM) | 0.567 | 0.936 | 0.889 | 0.807 | 0.929 | 0.606 | 0.279 | 0.847 | 0.626 | 0.651 | 0.569 | 0.58 | 0.879
5 | CN1CCN(CCOc2cc(OC3CCOCC3)c3c(Nc4c(Cl)ccc5c4OCO5)ncnc3c2)CC1 [Saracatinib/AZD0530] (max 10 µM) | 0.178 | 0.236 | -0.548 | 0.381 | 0.414 | 0.46 | 0.24 | 0.274 | -0.178 | -0.847 | 0.0936 | -0.108 | 0.389
6 | Cc1cc(C(C)Nc2ccccc2)c2nc(N3CCOCC3)cc(=O)n2c1 (stereo unspecified) [TGX221] (max 10 µM) | 0.723 | 0.994 | 0.524 | 1.04 | 1.05 | 1.03 | 1 | 0.789 | 0.799 | 0.0432 | 0.961 | 0.778 | 0.799
7 | CN(C)C/C=C/C(=O)Nc1ccc(C(=O)Nc2cccc(Nc3ncc(Cl)c(-c4c[nH]c5ccccc45)n3)c2)cc1 [THZ1] (max 1 µM) | -0.377 | -0.297 | -0.658 | -0.292 | -0.312 | -0.455 | -0.232 | -0.469 | -0.72 | -0.348 | -0.507 | -0.171 | -0.279
8 | CN(C)C/C=C/C(=O)Nc1ccc(C(=O)N2CCC[C@@H](Nc3ncc(Cl)c(-c4c[nH]c5ccccc45)n3)C2)cc1 [THZ531] (max 1 µM) | -0.153 | -0.146 | -0.861 | -0.203 | -0.0737 | -0.217 | -0.377 | -0.367 | -0.743 | 0.556 | -0.303 | -0.184 | -0.141
9 | CN(C)C/C=C/C(=O)Nc1ccc(C(=O)Nc2cccc(Nc3cc(-c4c[nH]c5ccccc45)ncn3)c2)cc1 [THZ-P1-2] (max 10 µM) | -0.523 | -0.655 | -0.697 | -0.518 | 0.364 | 0.566 | -0.344 | -0.708 | 0.142 | -0.371 | -0.649 | 0.656 | -0.453
10 | Cc1nc(-c2cn3c(n2)-c2ccc(-c4cnn(C(C)(C)C(N)=O)c4)cc2OCC3)n(C(C)C)n1 [Taselisib/GDC0032] (max 10 µM) | 0.0046 | -0.0501 | -0.989 | -0.392 | 0.074 | 0.0336 | 0.0652 | -0.255 | -0.99 | -0.636 | -0.363 | -0.0629 | -0.105
11 | O=C1NC(=O)[C@@H](c2cn3c4c(cccc24)CCC3)[C@@H]1c1c[nH]c2ccccc12 [Tivantinib/ARQ197] (max 10 µM) | -0.455 | -0.423 | -0.323 | -0.338 | -0.0779 | -0.161 | -0.121 | -0.0512 | -0.606 | -0.84 | -0.385 | -0.479 | -0.154
12 | Nc1ccc(-c2ccc3ncc4ccc(=O)n(-c5cccc(C(F)(F)F)c5)c4c3c2)cn1 [Torin2] (max 1 µM) | -0.0415 | -0.0085 | -0.648 | -0.556 | 0.0112 | 0.0764 | 0.0958 | -0.133 | -0.964 | -0.817 | -0.328 | -0.249 | 0.0099
